Where two headings read alike, the source gives them in different places.
Biological target: T1, thromboxane A2 receptors (TPα) of human platelets (Homo sapiens, UniProt P21731)
T1 construct: endogenous in cells; host or cells: human platelets
T1 sequence (P21731 1-343): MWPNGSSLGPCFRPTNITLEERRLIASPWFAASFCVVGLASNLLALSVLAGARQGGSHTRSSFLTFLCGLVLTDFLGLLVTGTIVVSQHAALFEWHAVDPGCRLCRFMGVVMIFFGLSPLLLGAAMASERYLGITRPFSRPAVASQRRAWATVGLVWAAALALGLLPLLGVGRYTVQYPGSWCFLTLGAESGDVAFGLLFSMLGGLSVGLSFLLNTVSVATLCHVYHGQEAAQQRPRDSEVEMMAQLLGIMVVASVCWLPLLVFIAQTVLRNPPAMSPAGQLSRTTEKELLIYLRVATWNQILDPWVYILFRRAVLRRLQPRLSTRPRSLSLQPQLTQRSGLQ
Test: Binding test: displacement of [3H]SQ-29.548 from human platelet thromboxane A2 receptors
Conditions: for inhibition at 1 µM: read-out: Affinity: percent of [3H]SQ-29.548 specifically substituted by the examined compound, compound 10^-6 M; for inhibition at 0.1 µM: read-out: Affinity: percent of [3H]SQ-29.548 specifically substituted by the examined compound, compound 10^-7 M
Source text: To operate a first selection, the capacity of these compounds to displace in a specific way a tritium ligand, the [^3H]
Cozzi P., Giordani A., Menichincheri M., Pillan A., Pinciroli V., Rossi A., Tonani R., Volpi D., Tamburin M., Ferrario R., Fusar D., Salvati P.,—Agents combining thromboxane receptor antagonism with thromboxane synthase inhibition:[[[2-(1H-imidazol-1-yl)ethylidene]amino]oxy]alkanoic acids.—J. Med. Chem., 1994, 37, 3588-3604.

[1] = read-out: IC 50: concentration required for replacing 50% of [3H]SQ-29.548 bound to receptors TPα

Row | SMILES | Affinity: percent of [3H]SQ-29.548 specifically substituted by the examined compound, 10^-6M | IC50 | inhibition at 1 µM | inhibition at 0.1 µM | further results
1 | CC(C)NC(=O)NS(=O)(=O)c1cc(C#N)ccc1NC1CCCCC1 [Compound 43] | 50.0% |  |  |  | 
2 | CCNC(=O)NS(=O)(=O)c1cc([N+](=O)[O-])ccc1NC1CCCCCCC1 [Compound 44] | 80.2% |  |  |  | Affinity: percent of [3H]SQ-29.548 specifically substituted by the examined compound, 10^-7M: 51.3%
3 | CCOC(=O)NS(=O)(=O)c1cc([N+](=O)[O-])ccc1NC1CCCC1 [Compound 45] | 79.9% |  |  |  | Affinity: percent of [3H]SQ-29.548 specifically substituted by the examined compound, 10^-7M: 50.4%
4 | CC(C)NC(=O)NS(=O)(=O)c1cc([N+](=O)[O-])ccc1NC1CCCCCCCCCCC1 [Compound 48] | 51.9% |  |  |  | 
5 | Cc1cccc(Nc2ccc([N+](=O)[O-])cc2S(=O)(=O)NC(=O)NC(C)C)c1C [Compound 49] |  | 2 nM | 98.3% | 94.9% | 
6 | Cc1ccc(Nc2ccc([N+](=O)[O-])cc2S(=O)(=O)NC(=O)NC(C)C)cc1 [Compound 50] | 95.7% |  |  |  | Affinity: percent of [3H]SQ-29.548 specifically substituted by the examined compound, 10^-7M: 76.0%
7 | Cc1cccc(Nc2ccc([N+](=O)[O-])cc2S(=O)(=O)NC(=NC#N)NC(C)(C)C)c1 [Compound 51] | 64.7% |  |  |  | 
8 | Cc1ccccc1Nc1ccc([N+](=O)[O-])cc1S(=O)(=O)NC(=O)NC(C)(C)C [Compound 52] | 99.0% |  |  |  | Affinity: percent of [3H]SQ-29.548 specifically substituted by the examined compound, 10^-7M: 93.9%; IC50 [1]: 2.8 nM
9 | CC(C)NC(=O)NS(=O)(=O)c1cc([N+](=O)[O-])ccc1Nc1cccc(C(=O)O)c1 [Compound 53] | 36.5% |  |  |  | 
10 | CC(C)NC(=O)NS(=O)(=O)c1cc([N+](=O)[O-])ccc1NC1CC2CCC1C2 (centres unmarked) [Compound 54] | 91.7% |  |  |  | 
11 | CC(C)(C)NC(=O)NS(=O)(=O)c1cc([N+](=O)[O-])ccc1NC1CC2CCC1C2 (centres unmarked) [Compound 55] |  | 3.4 nM | 98.2% | 93.3% | 
12 | CC(C)NC(=O)NS(=O)(=O)c1cc([N+](=O)[O-])ccc1NC(C)(C)C [Compound 56] | 0.0% |  |  |  | 
13 | CCCCCCNc1ccc([N+](=O)[O-])cc1S(=O)(=O)NC(=O)NC(C)C [Compound 57] | 67.0% |  |  |  | 
14 | CC(C)NC(=O)NS(=O)(=O)c1cc([N+](=O)[O-])ccc1NC12CC3CC(CC(C3)C1)C2 [Compound 58] | 83.2% |  |  |  | 
15 | CCCCCCNc1ccc([N+](=O)[O-])cc1S(=O)(=O)NC(=O)NC(C)(C)C [Compound 59] | 92.2% |  |  |  | 
16 | CCCCCCCCCCNc1ccc([N+](=O)[O-])cc1S(=O)(=O)NC(=O)NC(C)C [Compound 60] | 79.1% |  |  |  | 
17 | CCCCCNC(=O)NS(=O)(=O)c1cc([N+](=O)[O-])ccc1NC1CCCCC1 [Compound 61] |  |  | 98.6% | 94.8% | IC50 [1]: 1.1 nM
18 | CC(C)NC(=O)NS(=O)(=O)c1cc([N+](=O)[O-])ccc1N1CCOCC1 [Compound 62] | 3.7% |  |  |  | 
19 | CC(C)(C)NC(=O)NS(=O)(=O)c1cc([N+](=O)[O-])ccc1N1CCOCC1 [Compound 63] | 7.5% |  |  |  | 
20 | CC(C)NC(=O)NS(=O)(=O)c1cc([N+](=O)[O-])ccc1N1CCCCCC1 [Compound 64] | 57.8% |  |  |  | 
21 | O=C(Nc1ccccc1)NS(=O)(=O)c1cc([N+](=O)[O-])ccc1NC1CCCCC1 [Compound 65] | 46.6% |  |  |  | 
22 | CC(C)NC(=O)NS(=O)(=O)c1cc(C#N)ccc1NC1CC2CCC1C2 (centres unmarked) [Compound 66] | 49.6% |  |  |  | 
23 | Cc1ccc(Nc2ccc([N+](=O)[O-])cc2S(=O)(=O)NC(=O)NC(C)(C)C)cc1 [Compound 67] | 98.3% |  |  |  | Affinity: percent of [3H]SQ-29.548 specifically substituted by the examined compound, 10^-7M: 95.8%; IC50 [1]: 1.3 nM
24 | CC(C)NC(=O)NS(=O)(=O)c1cc([N+](=O)[O-])ccc1NC1C=CCCC1 (centres unmarked) [Compound 68] | 93.2% |  |  |  | Affinity: percent of [3H]SQ-29.548 specifically substituted by the examined compound, 10^-7M: 67.4%
25 | CC(C)NC(=O)NS(=O)(=O)c1cc(F)ccc1NC1C=CCCC1 (centres unmarked) [Compound 69] | 13.2% |  |  |  | 

Row | SMILES | Affinity: percent of [3H]SQ-29.548 specifically substituted by the examined compound, 10^-6M | IC50 | inhibition at 1 µM | inhibition at 0.1 µM | further results
26 | CC(C)NC(=O)NS(=O)(=O)c1cc(Cl)ccc1NC1C=CCCC1 (centres unmarked) [Compound 70] | 63.8% |  |  |  | 
27 | CC(C)NC(=O)NS(=O)(=O)c1cc(Br)ccc1NC1C=CCCC1 (centres unmarked) [Compound 71] | 77.8% |  |  |  | 
28 | CC(C)NC(=O)NS(=O)(=O)c1cc(I)ccc1NC1C=CCCC1 (centres unmarked) [Compound 72] | 86.5% |  |  |  | Affinity: percent of [3H]SQ-29.548 specifically substituted by the examined compound, 10^-7M: 52.7%
29 | Cc1cccc(Nc2ccc([N+](=O)[O-])cc2S(=O)(=O)NC(=O)NC(C)(C)C)c1C [Compound 73] |  | 1.2 nM | 98.3% | 95.6% | 
30 | CC(C)(C)NC(=NC#N)NS(=O)(=O)c1cc([N+](=O)[O-])ccc1NC1CCCCC1 [Compound 74] | 90.9% |  |  |  | 
31 | CC(C)NC(=O)NS(=O)(=O)c1cc([N+](=O)[O-])ccc1N[C@@H](C)c1ccccc1 [Compound 77] | 79.4% |  |  |  | 
32 | C[C@H](Nc1ccc([N+](=O)[O-])cc1S(=O)(=O)NC(=O)NC(C)(C)C)c1ccccc1 [Compound 78] |  | 4.2 nM | 95.3% | 71.6% | 
33 | CC(C)NC(=O)NS(=O)(=O)c1cc([N+](=O)[O-])ccc1N[C@H](C)c1ccccc1 [Compound 79] | 96.6% |  |  |  | 
34 | C[C@@H](Nc1ccc([N+](=O)[O-])cc1S(=O)(=O)NC(=O)NC(C)(C)C)c1ccccc1 [Compound 80] |  | 2.4 nM | 98.6% | 97.9% | 
35 | CCCNC(=O)NS(=O)(=O)c1cc([N+](=O)[O-])ccc1NC1CCCCC1 [Compound 81] |  | 57.8 nM | 93.3% | 65% | 
36 | CCCCNC(=O)NS(=O)(=O)c1cc([N+](=O)[O-])ccc1NC1CCCCC1 [Compound 82] |  | 4.5 nM | 98.5% | 98% | 
37 | CCCCCCNC(=O)NS(=O)(=O)c1cc([N+](=O)[O-])ccc1NC1CCCCC1 [Compound 83] |  | 4.5 nM | 98.5% | 92.7% | 
38 | CCCCCCCNC(=O)NS(=O)(=O)c1cc([N+](=O)[O-])ccc1NC1CCCCC1 [Compound 84] |  | 23.9 nM | 96.9% | 73.7% | 
39 | CCCCCCCCNC(=O)NS(=O)(=O)c1cc([N+](=O)[O-])ccc1NC1CCCCC1 [Compound 85] |  | 107 nM | 92.9% | 42.5% | 
40 | Cc1cc(C)c(Nc2ccc([N+](=O)[O-])cc2S(=O)(=O)NC(=O)NC(C)C)c(C)c1 [Compound 86] |  | 1.83 nM | 98.4% | 94.3% | 
41 | Cc1ccc(Nc2ccc([N+](=O)[O-])cc2S(=O)(=O)NC(=O)NC(C)C)cc1C [Compound 87] |  | 18.1 nM | 95.6% | 76% | 
42 | Cc1cc(C)cc(Nc2ccc([N+](=O)[O-])cc2S(=O)(=O)NC(=O)NC(C)C)c1 [Compound 88] |  | 16.2 nM | 95.4% | 82% | 
43 | Cc1ccc(C)c(Nc2ccc([N+](=O)[O-])cc2S(=O)(=O)NC(=O)NC(C)C)c1 [Compound 89] |  | 11.5 nM | 96.6% | 83.5% | 
44 | Cc1ccc(Nc2ccc([N+](=O)[O-])cc2S(=O)(=O)NC(=O)NC(C)C)c(C)c1 [Compound 90] |  | 5.46 nM | 96.9% | 88.6% | 
45 | Cc1cccc(C)c1Nc1ccc([N+](=O)[O-])cc1S(=O)(=O)NC(=O)NC(C)C [Compound 91] |  | 3.31 nM | 97.3% | 90.8% | 
46 | CCCCCNC(=O)NS(=O)(=O)c1cc([N+](=O)[O-])ccc1Nc1c(C)cc(C)cc1C [Compound 92] |  | 1.62 nM | 98.8% | 95.2% | 
47 | CCCCCNC(=O)NS(=O)(=O)c1cc(I)ccc1NC1C=CCCC1 (centres unmarked) [Compound 93] |  | 7.8 nM | 97.9% | 90.2% | 
48 | CCCCCNC(=O)NS(=O)(=O)c1cc([N+](=O)[O-])ccc1Nc1ccccc1C [Compound 94] | 98.4% |  |  |  | IC50 [1]: 2.82 nM
49 | CCCCCNC(=O)NS(=O)(=O)c1cc([N+](=O)[O-])ccc1Nc1ccc(C)cc1 [Compound 95] |  | 1.45 nM | 98.5% |  | 

Source: patent publication US6818765B1, “Benzene-sulphonamide derivatives and their uses” (Universite de Liege, priority 1999, dated 2004)
